Like-named read-outs stand apart in the source and are kept apart here.
How the values were obtained:
[1] = test system: ddy strain of male mice; test: Acute toxicity (oral, 7 days observation); assay type: in vivo; details: oral, mice, 7 days
Method: (§1) Next, several tests for determining the pharmacological properties, in that acute toxicity, anti-pyretic activity, analgesic activity and anti-inflammatory activity of the present 1,1,3,5-substituted biuret compounds of the formula (1) were conducted and the test results are shown in Table (2). In the tests, each compounds to be tested was used as a suspension in 0.25% carboxymethylcellulose solution. Methods for testing are explained as follows:
The ddy strain of male mice (body weight, 20-25 g) were used as test animals. The mice were fasted overnight and the compound to be tested was administered orally. […] The lethal dose (mg/kg, body weight) of the test compound was determined in connection with the death number of mice/the number of mice tested. In Table 2, the values indicated with Δ marks are 50% lethal dose, LD50 (mg/kg, body weight).

[2] = test system: Wistar strain of male rats; test: Anti-pyretic activity (dry-yeast induced fever); assay type: in vivo, rat (Wistar strain; details: oral, up to 4 hours after administration, dose not given
Method: as §1
According to the method reported by Tanabe [Folia Pharmacologia Japonica, Vol. 73, pp. 803 (1977)], the Wistar strain of male rats (150-180 g body weight) were used as test animals. The rats were fasted overnight, and 1 ml/100 g (body weight) of 10% dry-yeast suspension were subcutaneously injected on the back of the rats. Five hours after the injection, the test compound was administered orally, then the body temperature of the rat was measured at time sequences. Anti-pyretic activity of the test compound was determined as the FI (febril index) by integrating pyrogenetic curve up to 4 hours after the administration of the test compound with time, and indicated as inhibitory ratio (%) shown by the following formula, [formula]

[3] = test system: ddy strain of male mice; test: Analgesic activity, acetic acid-induced stretching method; assay type: in vivo, mouse (ddy strain; details: Mus musculus; for inhibition in vivo at 100 mg/kg / inhibition in vivo at 60 mg/kg: read-out: Analgesic activity, acetic acid-induced stretching method, inhibitory ratio; for ED50: read-out: Analgesic activity, acetic acid-induced stretching method, 50% effective dose, ED50 (values with Δ marks)
Method: as §1
According to the method reported by Koster et al., [Fed. Proc., Vol. 18, pp. 412 (1959)], the ddy strain of male mice (body weight, 20-25 g) were used as test animals. The mice were fasted overnight, 100 mg/kg body weight of the test compound was administered orally, then 1 hour after the administration, 0.2 ml of 0.7% acetic acid solution was injected intraperitoneally. The acetic acid-induced stretching symptom of mouse was observed. Analgesic activity of the test compound was calculated as the inhibitory ratio (%). In Table 2, the values in Parentheses show the data obtained from the test by using the dosage other than 100 mg/kg body weight. Further, the values indicated with Δ marks show 50% effective dose, ED50 (mg/kg body weight).

[4] = test system: ddy strain of male mice; test: Analgesic activity, Haffner method; assay type: in vivo, mouse (ddy strain; details: with threshold morphine hydrochloride s.c.
Method: as §1
According to the modified method reported by Fujimura et al., [Bulletin of the Institute for Chemical Research, Kyoto University, No. 25, pp. 36 (1951)], the ddy strain of male mice (body weight, 20-25 g) were used as test animals. The mice were fasted overnight, 100 mg/kg body weight of the test compound was administered orally, then 45 minutes after the administration, the threshold amount (1.5-2.5 mg/kg body weight) of morphine hydrochloride was injected subcutaneously. Then 1-hour pain reaction of the mouse caused by a clamp was observed. Analgesic activity of the test compound was calculated as the inhibitory ratio (%). In Table 2, the values in parentheses show the data obtained from the test by using the dosage other than 100 mg/kg body weight. Further, the values indicated with Δ marks show 50% effective dose, ED50 (mg/kg body weight).

[5] = test system: Wistar strain of male rats; test: Anti-inflammatory activity, acute carrageenin-induced inflammatory test; assay type: in vivo, rat (Wistar strain; details: Rattus norvegicus
Method: as §1
According to the method of acute carrageenin-induced inflammatory test [Folia Pharmacologia Japonica, Vol. 56, pp. 575 (1960)], the Wistar strain of male rats (body weight, 150-180 g) were used as test animals. The rats were fasted overnight, 100 mg/kg body weight of the test compound was administered orally, then 1 hour after the administration, 0.1 ml of 1% carrageenin solution, as the inflammation inducing agent, was injected subcutaneously to the hindpaw of the rat and the volume of the hindpaw was measured at time sequences. Anti-inflammatory activity of the test compound was calculated as inflammation inhibitory ratio (%) at 3 hours after the injection of the inflammation inducing agent.

[6] = 100 mg/kg oral, rats, 3 hours after carrageenin, read-out: Anti-inflammatory activity, inflammation inhibitory ratio
[7] = po, 3 h, read-out: Anti-inflammatory activity, inflammation inhibitory ratio
[8] = po, 2 h, read-out: Anti-inflammatory activity, inflammation inhibitory ratio (2 hours value)

Row | Structure (SMILES) | Acute toxicity, death number of mice/number of mice tested ([1]; 1000 mg/kg) | Acute toxicity, death number of mice/number of mice tested ([1]; 2000 mg/kg) | Anti-pyretic activity, inhibitory ratio of febril index (FI) [2] [%] | inhibition in vivo at 100 mg/kg ([3]; po) [%] | Analgesic activity, Haffner method, inhibitory ratio ([4]; 100 mg/kg oral) [%] | further results
1 | CN(C)C(=O)N(C)C(=O)Nc1ccccc1F [Compound No. 2, 1,1,3-Trimethyl-5-(2-fluorophenyl)biuret] | 1/4 | 4/4 | 76 | 62.5 | 75 | inhibition in vivo at 100 mg/kg [5, 6]: 63%
2 | COc1cc(NC(=O)N(C)C(=O)N(C)C)cc(OC)c1OC [Compound No. 19, 1,1,3-Trimethyl-5-(3,4,5-trimethoxyphenyl)biuret] | 2/4 |  | 23 |  | 62.5 | Acute toxicity, death number of mice/number of mice tested ([1]; 500 mg/kg): 0/4; ED50 ([3]; oral, mice, range in parentheses): 38 mg/kg; inhibition in vivo at 100 mg/kg [5, 7]: 30%
3 | Cc1ccc(NC(=O)N(C)C(=O)N(C)C)cc1 [Compound No. 22, 1,1,3-Trimethyl-5-(4-methylphenyl)biuret] |  | 0/4 | 52 |  |  | ED50 ([3]; po): 33 mg/kg; Analgesic activity, Haffner method, 50% effective dose, ED50 (values with Δ marks) ([4]; oral, range in parentheses): 80(42-152) mg/kg; inhibition in vivo at 100 mg/kg [5, 8]: 23%
4 | Cc1ccc(NC(=O)N(C)C(=O)N(C)C)cc1C [Compound No. 25, 1,1,3-Trimethyl-5-(3,4-dimethylphenyl)biuret] |  | 1/4 | 31 |  |  | inhibition in vivo at 60 mg/kg ([3]; 60 mg/kg oral, mice): 87.5%
5 | CCCN(C)C(=O)N(C)C(=O)Nc1ccccc1 [Compound No. 34, 1,3-dimethyl-1-propyl-5-phenylbiuret] | 1/4 | 4/4 | 44 |  | 37.5 | inhibition in vivo at 60 mg/kg ([3]; po): 75%; inhibition in vivo at 100 mg/kg [5, 8]: 26%
6 | CN(C)C(=O)N(C)C(=O)Nc1c(F)c(F)cc(F)c1F [compound 4, 1,1,3-Trimethyl-5-(2,3,5,6-tetrafluorophenyl)-biuret] | 4/4 |  | 33 | 87.5 | 50 | Acute toxicity, death number of mice/number of mice tested ([1]; 500 mg/kg): 0/4; inhibition in vivo at 100 mg/kg [5, 7]: 24%
7 | CN(C)C(=O)N(C)C(=O)Nc1ccccc1Cl [compound 5, 1,1,3-Trimethyl-5-(2-chlorophenyl)biuret] |  | 0/4 | 66 | 50 | 37.5 | inhibition in vivo at 100 mg/kg [5, 6]: 38%
8 | CN(C)C(=O)N(C)C(=O)Nc1ccc(Cl)cc1Cl [compound 8, 1,1,3-Trimethyl-5-(2,4-dichlorophenyl)biruet] | 0/4 | 3/4 | 42 | 50 | 75 | 
9 | CN(C)C(=O)N(C)C(=O)Nc1ccc(Cl)c(Cl)c1 [compound 10, 1,1,3-Trimethyl-5-(3,4-dichlorophenyl)biuret] | 1/4 | 3/4 | 43 | 50 | 62.5 | 
10 | CN(C)C(=O)N(C)C(=O)Nc1ccccc1C(F)(F)F [compound 12, 1,1,3-Trimethyl-5-(2-trifluoromethylphenyl)biruet] | 1/4 |  | 65 | 12.5 | 37.5 | inhibition in vivo at 100 mg/kg [5, 7]: 66%
11 | COc1ccc(NC(=O)N(C)C(=O)N(C)C)cc1OC [compound 18, 1,1,3-Trimethyl-5-(3,4-dimethoxyphenyl)biuret] | 0/4 | 4/4 | 18 | 75 | 62.5 | 
12 | Cc1cccc(NC(=O)N(C)C(=O)N(C)C)c1C [compound 23, 1,1,3-Trimethyl-5-(2,3-dimethylphenyl)biuret] | 1/4 | 4/4 | 40 |  | 25 | inhibition in vivo at 100 mg/kg ([3]; 100 mg/kg oral, mice): 50%
13 | Cc1c(Cl)cccc1NC(=O)N(C)C(=O)N(C)C [compound 26, 1,1,3-Trimethyl-5-(2-methyl-3-chlorophenyl)biuret] | 1/4 | 4/4 | 45 | 75 | 25 | 
14 | CSc1ccc(NC(=O)N(C)C(=O)N(C)C)cc1 [compound 28, 1,1,3-Trimethyl-5-(4-methylthiophenyl)biuret] | 0/4 | 4/4 |  | 50 |  | 
15 | CCN(C(=O)Nc1ccccc1)C(=O)N(C)C [compound 30, 1,1-Dimethyl-3-ethyl-5-phenylbiuret] | 0/4 | 3/4 | 12 | 62.5 |  | inhibition in vivo at 100 mg/kg [5, 7]: 23%
16 | CCCN(C(=O)Nc1ccccc1)C(=O)N(C)C [compound 31, 1,1-Dimethyl-3-n-propyl-5-phenylbiuret] |  | 0/4 | 12 | 37.5 |  | Analgesic activity, Haffner method, inhibitory ratio ([4]; 200 mg/kg oral): 62.5%
17 | CCCCN(C(=O)Nc1ccccc1)C(=O)N(C)C [compound 32, 1,1-Dimethyl-3-n-butyl-5-phenylbiuret] | 0/4 | 3/4 | 18 | 37.5 | 31 | 
18 | CCCCN(C)C(=O)N(C)C(=O)Nc1ccccc1 [compound 35, 1-n-Butyl-1,3-dimethyl-5-phenylbiuret] | 0/4 | 3/4 | 35 | 37.5 | 25 | 

— patent publication US4293713A, “Novel 1,1,3,5-substituted biuret compound and a pharmaceutical composition containing the same” (priority 1979, dated 1981)
